Measurements reported in article PMC8412142 (Journal of medicinal chemistry, 2021).

Key:
[1] = tested on: MRC5 cells; assay: MRC5 cell toxicity; type: cell-based; settings: in words
[2] = Human liver microsome intrinsic clearance; settings: human liver microsomes
[3] = Mouse plasma stability; type: in vitro ADME; settings: in words
[4] = In vivo pharmacokinetics of 29d, 10 mg/kg ip; design: species or system BALB/c mice
[5] = tested on: Caco-2; assay: Caco-2 permeability and efflux assay; type: in vitro ADME

Compound	toxicity in mammalian cells [1]	HLM Clint [2] [μg/min/mg protein]	other results
Cn1cc(-c2cnc3[nH]cc(-c4ccc(O)cc4)c3c2)cn1 [13u, 4-(5-(1-Methyl-1H-pyrazol-4-yl)-1H-pyrrolo[2,3-b]pyridin-3-yl)phenol]	showed signs of toxicity in mammalian cells	–	–
5-(1-methyl-1H-pyrazol-4-yl)-3-(4-(trifluoromethyl)phenyl)-1H-pyrrolo[2,3-b]pyridine [13i]	–	66	–
N#Cc1cccc(-c2c[nH]c3ncc(-c4cnn(C5CCNCC5)c4)cc23)c1 [29d]	non-toxic in MRC5 cells	–	stability in mouse plasma [3]: stable in mouse plasma; brain penetration [4]: not appreciably brain-penetrant; Mean brain concentration ([4]; sparse sampling, 0.5 h, LLOQ = 9.77 ng/mL): <LLOQ; Caco-2 efflux / transporter substrate [5]: likely a substrate for P-gp; Caco-2 permeability [5]: low permeability
Cn1cc(-c2cnc3[nH]cc(-c4cccc([N+](=O)[O-])c4)c3c2)cn1 [13t, 5-(1-Methyl-1H-pyrazol-4-yl)-3-(3-nitrophenyl)-1H-pyrrolo[2,3-b]pyridine]	showed signs of toxicity in mammalian cells	–	–
3-(5-(Piperidin-1-yl)-1H-pyrrolo[2,3-b]pyridin-3-yl)benzonitrile [24c]	–	44	–
